How the values were obtained:
[1] = test system: RNase A, RNase 1, and RNase T1; test: Substrate optimization in ribonuclease assays (visual and fluorometric detection); assay type: biochemical; conditions: 28 Substrate ODNs compared
Description: Nuclease assays were conducted using the method of the invention with both visual and fluorometric detection methods. Substrates were individually mixed in 1× Assay Buffer at a concentration of 50 nM (50 pmoles oligonucleotide in 1 ml volume) for fluorometric detection or at a concentration of 500 nM (50 pmoles of oligonucleotide in 100 ul volume) for visual detection. Test nucleases were added to respective Assay Mixes beginning at 1 ul stock reagent and proceeding with a 1:10 serial dilution until undetectable. Reaction mixes were incubated at 37° C. for 60 minutes. Fluorometric detection was performed as outlined in Example 2. Visual detection was performed as outlined in Example 1.
Different Substrates were examined for reactivity with RNase A, RNase 1, and RNase T1. A Substrate composition that contains all 4 ribonucleotide bases in an optimized sequence might be sensitive to most ribonuclease activities and could function as a stand-alone reagent for the Assay. Alternatively, a mix of Substrates could be used (for example, wherein one Substrate contains adenosine, one contains guanosine, one contains uridine, and one contains cytosine residues). Both possibilities were tested. […] Substrates having different base sequence were compared for sensitivity. […] Sequence dependence for RNase T1 was pronounced with cleavage preference being ‘gg’>‘gc’>‘ga’>‘gu’. […]

[2] = Ribonuclease assay on an environmental sample (tapwater), visual detection; assay type: biochemical; conditions: with Assay Buffer, Substrate 500 nM, room temperature 10 minutes
Description: Nuclease assays were conducted using the method of the invention. Dilutions of the test sample (tapwater) were made in nuclease-free water both with and without the addition of Assay Buffer. Samples were tested having 100%, 50%, 25%, 10%, 5%, and 1% tapwater. Assay Mixes contained test sample (diluted or undiluted tapwater) and Substrate (SEQ ID NO:30) at a concentration of 500 nM (50 pmoles ODN in 100 ul volume). Control Assay Mixes were in nuclease-free water without added tapwater. Duplicate Assays were performed with and without 1× Assay Buffer. Assay Mixes were incubated at room temperature for 10 minutes. Reactions were visually examined for fluorescence emission in the assay tubes without further manipulation. Tubes were suspended above an ultraviolet light source, visually inspected, and photographed using a digital camera. […] The test samples (with tapwater) emitted fluorescent signal. With Assay Buffer, tapwater was detectable when diluted to as little as 10 parts-per-thousand (1%). Without Assay Buffer, the assay was less sensitive and fluorescent emission was less intense. Addition of Buffer thus led to improved assay sensitivity.

Ribonuclease A = target: T1, Ribonuclease A (Bos taurus, UniProt P61823); test: Visual detection ribonuclease assay, cleavage of Substrate ODN by RNase A; assay type: biochemical, mammalian; design: key to Sensitivity of Substrate ODN to Ribonuclease A, relative signal intensity: +++ = maximum intensity; ++ = moderate intensity; + = faint but above background; − = negative (identical to background); conditions: Substrate 500 nM; for Sensitivity of Substrate ODN to Ribonuclease A, relative signal intensity: visual inspection, UV excitation, 37° C. 60 minutes
T1 sequence (P61823 27-150): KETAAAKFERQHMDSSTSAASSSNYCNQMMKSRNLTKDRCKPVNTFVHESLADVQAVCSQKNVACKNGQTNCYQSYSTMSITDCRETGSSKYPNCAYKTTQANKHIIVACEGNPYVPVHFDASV
Method in brief: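 Fluorogenic substrate oligonucleotides (500 nM for visual, 50 nM for fluorometric read) cut by serially diluted RNase A, 10 min at room temperature or 60 min at 37° C. Cleavage judged by fluorescence under UV excitation, scored +++ to − by relative intensity.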

5′ Fluorescein-AauggcA-QSY-7 3′ (NAAUGGCAN; 5' fluorescein and 3' QSY-7 labels, nucleotide chemistry not given here) [SEQ ID NO:30]
Relative activity / sensitivity among Substrates tested [1]: most active
Lowest tapwater concentration detectable [2]: 1%
Sensitivity of Substrate ODN to Ribonuclease A, relative signal intensity (Ribonuclease A; RNase A 10 pg/ml): ++
Sensitivity of Substrate ODN to Ribonuclease A, relative signal intensity (Ribonuclease A; RNase A 100 pg/ml): +++
Sensitivity of Substrate ODN to Ribonuclease A, relative signal intensity (Ribonuclease A; RNase A 1 ng/ml): +++
Fluorescence emission by visual inspection in the presence of RNase (Ribonuclease A; RNase A 1.0 ug/ml, room temperature 10 minutes, UV light source): visibly bright
Detection of RNase A activity by visual examination (Ribonuclease A; final dilution factors of stock 10^−2 to 10^−7, room temperature 10 minutes): clearly detectable
Fluorescence emission by visual inspection in the absence of RNase (control reaction) (Ribonuclease A; no nuclease, room temperature 10 minutes, UV light source): visually transparent (dark)

Source: patent US7276337B2, “Compositions and methods for visual ribonuclease detection assays” (Integrated DNA Technologies, Inc., priority 2000, dated 2007)
